Experiments:
CA09 = experiment: microbe, parasite or virus in culture; assay type: cell-based, influenza virus H1N1 strain A/CA/04/2009; details: NHBE, read-out: TCID50 (per mL)
NHBE cells = experiment: Biolog metabolic array: substrate use by NHBE cells with or without CA09 infection; assay type: cell-based, human
[1] = Control (uninfected) NHBE cells
[2] = Virus (CA09-infected, MOI 1) NHBE cells
[3] = Virus: CA09-infected NHBE cells, MOI 1, Biolog PMM2

## O=C(CO)[C@@H](O)[C@@H](O)[C@H](O)[C@H](O)CO [D-mannoheptulose]
CA09
  log reduction at 10 pM: 0
  log reduction at 0.0001 µM: 0.76
  log reduction at 0.001 µM: 0.56
  log reduction at 0.01 µM: 0
  log reduction at 0.1 µM: 0.25
  log reduction at 1 µM: 0.88
  log reduction at 10 µM: 0.4
  log reduction at 100 µM: -0.03

## Dextrin
NHBE cells; [1]
  590 nm absorbance normalized to zero hour (substrate use), 0 hr: 1.00
  590 nm absorbance normalized to zero hour (substrate use), 2 hr: 3.19
  590 nm absorbance normalized to zero hour (substrate use), 3 hr: 4.01
  590 nm absorbance normalized to zero hour (substrate use), 6 hr: 4.79
  590 nm absorbance normalized to zero hour (substrate use), 8 hr: 8.34
  590 nm absorbance normalized to zero hour (substrate use), 9 hr: 9.71
  590 nm absorbance normalized to zero hour (substrate use), 10 hr: 8.28
  590 nm absorbance normalized to zero hour (substrate use), 11 hr: 8.41
NHBE cells; Control (uninfected) NHBE cells, Biolog PMM2, 0 hr
  Substrate use, 590 nm absorbance normalized to zero hour, 0 hr: 1.00
NHBE cells; Control (uninfected) NHBE cells, Biolog PMM2, 5 hr
  Substrate use, 590 nm absorbance normalized to zero hour, 5 hr: 6.14
NHBE cells; Control (uninfected) NHBE cells, Biolog PMM2, 7 hr
  Substrate use, 590 nm absorbance normalized to zero hour, 7 hr: 7.35
NHBE cells; [2]
  590 nm absorbance normalized to zero hour (substrate use), 0 hr: 1.00
  590 nm absorbance normalized to zero hour (substrate use), 1 hr: 2.14
  590 nm absorbance normalized to zero hour (substrate use), 2 hr: 2.79
  590 nm absorbance normalized to zero hour (substrate use), 3 hr: 3.43
  590 nm absorbance normalized to zero hour (substrate use), 4 hr: 3.84
  590 nm absorbance normalized to zero hour (substrate use), 5 hr: 4.91
  590 nm absorbance normalized to zero hour (substrate use), 6 hr: 5.56
  590 nm absorbance normalized to zero hour (substrate use), 7 hr: 6.11
  590 nm absorbance normalized to zero hour (substrate use), 8 hr: 6.72
  590 nm absorbance normalized to zero hour (substrate use), 9 hr: 7.89
  590 nm absorbance normalized to zero hour (substrate use), 10 hr: 8.23
  590 nm absorbance normalized to zero hour (substrate use), 11 hr: 6.40
NHBE cells; [3]
  590 nm absorbance normalized to zero hour (substrate use), 0 hr: 1.00
  590 nm absorbance normalized to zero hour (substrate use), 1 hr: 2.14
  590 nm absorbance normalized to zero hour (substrate use), 2 hr: 2.79
  590 nm absorbance normalized to zero hour (substrate use), 3 hr: 3.43
  590 nm absorbance normalized to zero hour (substrate use), 4 hr: 3.84
  590 nm absorbance normalized to zero hour (substrate use), 5 hr: 4.91
  590 nm absorbance normalized to zero hour (substrate use), 6 hr: 5.56
  590 nm absorbance normalized to zero hour (substrate use), 7 hr: 6.11
  590 nm absorbance normalized to zero hour (substrate use), 8 hr: 6.72
  590 nm absorbance normalized to zero hour (substrate use), 9 hr: 7.89
  590 nm absorbance normalized to zero hour (substrate use), 10 hr: 8.23
  590 nm absorbance normalized to zero hour (substrate use), 11 hr: 6.40
